Laboratory results as given in patent US8697858B2 (priority 2009, dated 2014).
l = locked nucleic acid (LNA); d = 2'-deoxy (DNA)

How the values were obtained:
H1N1 (strain PR8) = format: cell-based, murine
M2 protein = format: cell-based, H1N1 (strain PR8)

Row | Substance | relative effectiveness of the 2′OMe compounds (viral HA RNA; also observed for M2 protein) (H1N1 (strain PR8)) | reduction in viral HA RNA levels (H1N1 (strain PR8)) | effectiveness in the M2 protein expression assay (M2 protein) | effectiveness in the viral HA RNA assay (H1N1 (strain PR8))
1 | 2′OMe-AUG2: 2′OMe phosphorothioate oligomer, SEQ ID NO: 20 (ACCTCGGTTAGAAGACTCATCTTTC; all 2'-O-methyl, all phosphorothioate, T or U not given here) | most effective |  |  | 
2 | LNA-AUG1: LNA (capitals)/DNA CgGtTaGaAgAcTcAtCtTt (CGGTTAGAAGACTCATCTTT; sugars from the 5' end ldldldldldldldldldld, backbone and methylation of C not given here) |  | approximately 3 log | most effective | 
3 | LNA-AUG10: LNA (capitals)/DNA gAcTcAtCtT (GACTCATCTT; sugars from the 5' end dldldldldl, backbone and methylation of C not given here) |  |  | least effective | least effective
4 | LNA-AUG12: LNA (capitals)/DNA CgGtTaGaAgAcTcAt (CGGTTAGAAGACTCAT; sugars from the 5' end ldldldldldldldld, backbone and methylation of C not given here) |  | approximately 1.5 log |  | 
